Laboratory results as given in patent US20100036088A1, “Selective poly-N-substituted glycine antibiotics” (priority 2008, published 2010).
Square brackets hold non-standard residues; d marks the D form. Peptide text beside a SMILES is read from it. Nspe = C[C@H](NCC(=O)O)c1ccccc1; Nlys = NCCCCNCC(=O)O

What was measured:
[1] = tested on: Candida albicans (SC5314); assay type: cell-based, C. albicans; settings: Table 2
Procedure: Additionally, in order to characterize possible antifungal activity, a library of alkylated compounds was tested against C. albicans, a representative fungal strain.
Antifungal Assays. MICs were determined using the broth microdilution assay given by CLSI M27-A2 protocols. Candida albicans (SC5314) was grown on Sabouraud dextrose agar for 24 hours at 30° C. Cells were suspended in 0.145 M saline, and the cell concentration was adjusted to 3×10^6 cells/mL. After adjusting the cell concentration, the suspension was diluted 1:1000 with RPMI 1640 (with L-glutamine and without sodium bicarbonate, Invitrogen) buffered with 0.145 M 3-(N-morpholino) propanesulfonic acid (MOPS). Two-fold serial dilutions of peptoids, peptides, and amphotericin B (Calbiochem) were prepared in RPMI 1640 and mixed with an equal volume of the cell suspension in 96-well plates. The final testing concentrations for the peptoids and peptides were 0.20 to 100 μM, and concentrations for amphotericin B were 0.031 to 16 μM. Growth controls and sterility controls were also included. Plates were incubated for 48 hours at 35° C., and growth of C. albicans was inspected visually to determine the MICs. The MIC for each compound was defined as the lowest concentration with no visible fungal growth. Experiments were performed in duplicate on two separate days.

[2] = tested on: NIH 3T3 mouse fibroblast cells; experiment: MTS assay, metabolic inhibition; assay type: cell-based; settings: Table 3; NIH 3T3 cells
Procedure, shortened: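 NIH/3T3 cells seeded at 5,000 per well, grown a day, then exposed to serially diluted peptoids in HBSS together with MTS reagent. Absorbance at 490 nm read after 3 hours at 37° C.; mean of six replicates.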

C[C@@H](c1ccccc1)N(CC(N)=O)C(=O)CN(C(=O)CN(CCCCN)C(=O)CN(C(=O)CN(C(=O)CN(CCCCN)C(=O)CN(C(=O)CN(C(=O)CN(CCCCN)C(=O)CN(C(=O)CN(C(=O)CNCCCCN)[C@@H](C)c1ccccc1)[C@@H](C)c1ccccc1)[C@@H](C)c1ccccc1)[C@@H](C)c1ccccc1)[C@@H](C)c1ccccc1)[C@@H](C)c1ccccc1)[C@@H](C)c1ccccc1 [compound 1, H-(NLys-Nspe-Nspe)4-NH2] (H-[Nlys][Nspe][Nspe][Nlys][Nspe][Nspe][Nlys][Nspe][Nspe][Nlys][Nspe][Nspe]-NH2)
C. albicans MIC [1]: 6.3 µM
ID10 (10% metabolic inhibitory concentration) [2]: 5.1
ID50 (50% metabolic inhibitory concentration) [2]: 1.4
